Laboratory results taken from publication PMC8058163 (Clinical pharmacology and therapeutics, 2020).
“And” between values parts separate entries of the source, which are not always exact repeats. Equal entries are not always repeated. Where two headings read alike, the source gives them in different places. One block for each compound: values may come before it.

Assays:
[1] = molecular target: T1, OCT1 (Homo sapiens, UniProt O15245); assay: Transporter inhibition assay, OCT1
T1 sequence (O15245 1-554): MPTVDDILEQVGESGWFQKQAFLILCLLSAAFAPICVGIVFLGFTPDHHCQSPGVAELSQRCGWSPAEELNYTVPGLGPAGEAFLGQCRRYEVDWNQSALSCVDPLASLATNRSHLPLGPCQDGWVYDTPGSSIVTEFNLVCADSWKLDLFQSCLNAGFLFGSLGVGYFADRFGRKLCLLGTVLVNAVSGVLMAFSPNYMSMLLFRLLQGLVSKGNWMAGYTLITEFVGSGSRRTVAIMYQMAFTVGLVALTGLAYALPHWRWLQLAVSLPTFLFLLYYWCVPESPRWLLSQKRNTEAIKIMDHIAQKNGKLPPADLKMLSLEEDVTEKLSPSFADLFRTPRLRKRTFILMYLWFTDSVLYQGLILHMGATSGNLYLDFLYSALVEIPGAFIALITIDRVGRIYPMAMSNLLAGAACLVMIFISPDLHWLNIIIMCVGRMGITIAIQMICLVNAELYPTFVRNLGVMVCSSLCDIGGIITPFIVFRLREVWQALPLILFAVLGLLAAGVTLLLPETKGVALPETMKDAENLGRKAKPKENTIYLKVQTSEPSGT

[2] = molecular target: T2, OAT1 (Homo sapiens, UniProt Q4U2R8); assay: Transporter inhibition assay, OAT1; assay type: cell-based; conditions: cell line (HEK293 or MDCKII) stably expressing OAT1
T2 sequence (Q4U2R8 1-563): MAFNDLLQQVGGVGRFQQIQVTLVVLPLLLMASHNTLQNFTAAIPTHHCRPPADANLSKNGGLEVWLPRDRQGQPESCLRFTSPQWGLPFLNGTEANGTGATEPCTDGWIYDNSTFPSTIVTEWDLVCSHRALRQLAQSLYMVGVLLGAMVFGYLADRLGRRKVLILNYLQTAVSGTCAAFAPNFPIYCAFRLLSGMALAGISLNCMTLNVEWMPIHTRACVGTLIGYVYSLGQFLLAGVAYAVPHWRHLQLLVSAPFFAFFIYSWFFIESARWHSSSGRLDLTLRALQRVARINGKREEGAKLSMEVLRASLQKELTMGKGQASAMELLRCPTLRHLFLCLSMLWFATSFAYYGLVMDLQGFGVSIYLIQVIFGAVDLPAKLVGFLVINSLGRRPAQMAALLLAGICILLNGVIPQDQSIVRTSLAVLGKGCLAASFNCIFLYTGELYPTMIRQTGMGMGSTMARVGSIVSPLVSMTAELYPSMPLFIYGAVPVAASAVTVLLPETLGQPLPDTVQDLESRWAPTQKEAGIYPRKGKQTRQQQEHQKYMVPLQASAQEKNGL

[3] = system: all transporters tested; assay: Transporter inhibition assays, summary over the panel; conditions: against all transporters tested
[4] = molecular target: MATE2-K (Homo sapiens, UniProt Q86VL8); assay: Transporter inhibition assay, MATE2-K; assay type: cell-based; conditions: isolated alkaloids, mean [95% CI], three technical replicates
Chain of MATE2-K (Q86VL8 1-566 isoform Q86VL8-3): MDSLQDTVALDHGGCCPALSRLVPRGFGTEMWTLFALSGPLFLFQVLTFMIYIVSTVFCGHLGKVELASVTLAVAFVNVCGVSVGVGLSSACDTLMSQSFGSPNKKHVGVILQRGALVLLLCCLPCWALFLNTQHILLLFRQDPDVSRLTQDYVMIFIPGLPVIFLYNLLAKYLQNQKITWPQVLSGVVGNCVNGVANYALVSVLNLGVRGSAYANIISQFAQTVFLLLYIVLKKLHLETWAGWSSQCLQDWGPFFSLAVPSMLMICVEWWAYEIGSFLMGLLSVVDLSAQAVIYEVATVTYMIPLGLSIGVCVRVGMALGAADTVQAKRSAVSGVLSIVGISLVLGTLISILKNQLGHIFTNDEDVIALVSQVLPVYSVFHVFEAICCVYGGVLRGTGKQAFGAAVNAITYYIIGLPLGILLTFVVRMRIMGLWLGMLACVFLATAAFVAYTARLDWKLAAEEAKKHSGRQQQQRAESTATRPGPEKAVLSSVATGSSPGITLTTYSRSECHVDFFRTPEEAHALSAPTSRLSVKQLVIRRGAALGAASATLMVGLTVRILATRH

[5] = Estimated berberine concentrations and parameters for the basic models; conditions: 29.8 mg berberine in a 1-gram capsule / 250 mL

SMILES: COc1ccc2c(c1OC)C(=O)O[C@@H]2[C@H]1c2cc3c(cc2CCN1C)OCO3 [(−)-β-Hydrastine, (1R,9S)-(−)-β-Hydrastine]
IC50 ([1]; OCT1, isolated alkaloids, mean [95% CI], three technical replicates): 6.6 µM

SMILES: CN1CCc2cc3c(cc2C1O)OCO3 (stereo not drawn) [Hydrastinine, hydrastinine chloride monohydrate]
inhibition at 100 μM [2]: < 20%
IC50 [3]: ≥ 80 µM

IC50 [4]: < 1 µM and 0.77 µM
estimated concentration in the gut (Igut) [5]: ~ 350 μM
IC50 [1]: 19 µM
SMILES: COc1ccc2cc3[n+](cc2c1OC)CCc1cc2c(cc1-3)OCO2 [Berberine, berberine chloride]
